Calls of active or inactive are those of the source. No cut-off for these calls is given here.
species: Mus musculus; assay: Antitumor activity against B16-melanoma bearing mice; active; format: functional, organism-based

| Structure (SMILES) | Activity |
| --- | --- |
| CCCCCCCCCCCCCCCCCCCCCCC[C@@H](O)C(=O)N[C@@H](CO[C@H]1O[C@@H](CO)[C@H](O)[C@H](O)[C@@H]1O)[C@H](O)[C@H](O)CCCCCCCCCCCC(C)CC (some centres undefined) | Active |
| CCCCCCCCCCCCCCCCCCCCCC[C@@H](O)C(=O)N[C@@H](CO[C@H]1O[C@@H](CO)[C@H](O)[C@H](O)[C@@H]1O)[C@H](O)[C@H](O)CCCCCCCCCCCC | Active |
| CCCCCCCCCCCCCCCCCCCCCC[C@@H](O)C(=O)N[C@@H](CO[C@H]1O[C@@H](CO)[C@H](O)[C@H](O)[C@@H]1O)[C@H](O)[C@H](O)CCCCCCCCCCCC(C)C | Active |
| CCCCCCCCCCCCCCCCCCCCCC[C@@H](O)C(=O)N[C@@H](CO[C@H]1O[C@@H](CO)[C@H](O)[C@H](O)[C@@H]1O)[C@H](O)[C@H](O)CCCCCCCCCCCC(C)CC (some centres undefined) | Active |

From ChEMBL document CHEMBL1128624, “Syntheses of -, -monoglycosylceramides and four diastereomers of an -galactosylceramide” (Bioorg Med Chem Lett, 1995)
